Tests used:
[1] = system: Crabgrass (CG); experiment: Post-emergence herbicide test; format: in vivo, Digitaria sanquinalis; conditions: Digitaria sanguinalis, post-emergence, 336 h, two weeks after treatment; for pest or weed control at 4483.4 g/ha: 4 lb/acre
Summary of the method: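 Crabgrass (Digitaria sanquinalis) was surface seeded individually in 3' plastic pots of potting soil, covered with screened soil, and watered by sub-irrigation in greenhouse trays. Planting was staggered so seedlings reached the target stage together. Post-emergence sprays were applied in a hood with a removable belt and fixed nozzle, and control was visually rated two weeks after treatment.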

[2] = system: Amaranth pigweed (PW); experiment: Pre-emergence herbicide test; format: in vivo, Amaranthus retroflexus; conditions: 336 h, two weeks after treatment; for pest or weed control at 4483.4 g/ha: 4 lb/acre
Summary of the method: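 Pigweed was surface-seeded in potted soil one day before spraying at 8 lbs compound per acre, or 4 lbs/acre, in 38 gallons per acre. Pots were kept in the greenhouse with sub-irrigation only; injury or control was rated visually two weeks after treatment.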

[3] = system: Bean (BN); experiment: Post-emergence herbicide test; format: in vivo, Phaseolus vulgaris var. Black Valentine; conditions: Phaseolus vulgaris, post-emergence, 336 h, two weeks after treatment; for pest or weed control at 4483.4 g/ha: 4 lb/acre
Summary of the method: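 Snapbean (Phaseolus vulgaris var. Black Valentine) was tested post-emergence. Four seeds were sown in 3' plastic pots of potting soil at a depth equal to the seed diameter, then sub-irrigated in greenhouse trays. Planting dates were staggered so plants were sprayed once primary leaves had expanded, with the growing point at the primary leaf nodes.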

[4] = system: Bean (BN); experiment: Pre-emergence herbicide test; format: in vivo, Phaseolus vulgaris var. Black Valentine; conditions: Phaseolus vulgaris, 336 h, two weeks after treatment; for pest or weed control at 4483.4 g/ha: 4 lb/acre
Summary of the method: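 Black Valentine bean was seeded in potting soil one day before spraying. Compound was applied pre-emergence at 8 lbs/acre (also 4 lbs/acre) in 38 gallons per acre. Plants were sub-irrigated and injury or control was rated visually after two weeks.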

[5] = system: Crabgrass (CG); experiment: Pre-emergence herbicide test; format: in vivo, Digitaria sanquinalis; conditions: Digitaria sanguinalis, pre-emergence, 336 h, two weeks after treatment; for pest or weed control at 4483.4 g/ha: 4 lb/acre
Summary of the method: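 Crabgrass (Digitaria sanquinalis) was surface seeded in 3' plastic pots of potting soil, covered with screened soil, and watered by sub-irrigation in greenhouse trays. Pots were seeded one day before spraying in a hood with a moving belt and fixed nozzle. Plants stayed in the greenhouse on sub-irrigation, and pre-emergence control was rated visually two weeks after treatment.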

[6] = system: Turnip (TP); experiment: Post-emergence herbicide test; format: in vivo, Brassica sp.; conditions: Brassica rapa, post-emergence, 336 h, two weeks after treatment; for pest or weed control at 4483.4 g/ha: 4 lb/acre
Summary of the method: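 A greenhouse post-emergence herbicide test on turnip. Seeds were sown on the surface of potting soil in 3' plastic pots, lightly covered with screened soil and watered from below. Planting was timed so seedlings had 1 or 2 true leaves above the cotyledons at spraying, done in a hood with a fixed nozzle. Control or injury was scored by eye after two weeks.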

[7] = system: Cotton (CT); experiment: Pre-emergence herbicide test; format: in vivo, Gossypium hirsutum var. DPL smooth leaf; conditions: Gossypium hirsutum, 336 h, two weeks after treatment; for pest or weed control at 4483.4 g/ha: 4 lb/acre
Summary of the method: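 Crop and weed species seeded one day before treatment, then sprayed pre-emergence at 8 lbs actual compound per acre (also 4 lbs/acre formulations) in 38 gallons per acre. Pots kept in greenhouse with sub-irrigation only; injury or control visually rated two weeks after treatment.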

[8] = system: Corn (CN); experiment: Pre-emergence herbicide test; format: in vivo; conditions: Zea mays, 336 h, two weeks after treatment; for pest or weed control at 4483.4 g/ha: 4 lb/acre
Summary of the method: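 Four corn seeds per pot, sown at seed-diameter depth one day before spraying, got soil surface treatment at 8 lbs/acre (4 lbs/acre formulations also prepared) in 38 gallons/acre. Pots were greenhouse-held with sub-irrigation only. Injury or control was scored visually two weeks after treatment.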

[9] = system: Cotton (CT); experiment: Post-emergence herbicide test; format: in vivo, Gossypium hirsutum var. DPL smooth leaf; conditions: Gossypium hirsutum, post-emergence, 336 h, two weeks after treatment; for pest or weed control at 4483.4 g/ha: 4 lb/acre
Summary of the method: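 Cotton (Gossypium hirsutum var. DPL smooth leaf) was grown in 3' plastic pots of potting soil, four seeds per pot, planted at a depth equal to the seed diameter and watered by sub-irrigation. At the stage of expanded cotyledons with the first true leaf 1' long, plants were sprayed post-emergence in a hood with a fixed nozzle over a moving belt. Percent control was rated visually two weeks later.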

[10] = system: Barnyard grass (BG); experiment: Pre-emergence herbicide test; format: in vivo; conditions: Echinochloa crus-galli, 336 h, two weeks after treatment
Summary of the method: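 Barnyard grass surface-seeded in potting soil and sprayed pre-emergence one day after seeding, at 8 or 4 lb compound/acre in 38 gal/acre spray volume. Pots kept in greenhouse with sub-irrigation only; injury or control rated visually two weeks after treatment.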

[11] = system: Turnip (TP); experiment: Pre-emergence herbicide test; format: in vivo, Brassica sp.; conditions: Brassica rapa, pre-emergence, 336 h, two weeks after treatment; for pest or weed control at 4483.4 g/ha: 4 lb/acre
Summary of the method: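 Turnip (Brassica sp.) seeds were surface sown in 3' plastic pots of potting soil, covered with a thin layer of screened soil, and sub-irrigated in greenhouse trays. Pots were seeded one day ahead of treatment, sprayed pre-emergence under a hood with a fixed nozzle and moving belt, then kept in the greenhouse.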

[12] = system: Johnson grass (JG); experiment: Pre-emergence herbicide test; format: in vivo, Sorgum helepense; conditions: Sorghum halepense, 336 h, two weeks after treatment; for pest or weed control at 4483.4 g/ha: 4 lb/acre
Summary of the method: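 Pots seeded one day before spraying; compound applied pre-emergence at 8 lbs/acre (or 4 lbs/acre) in 38 gallons/acre spray volume. Sub-irrigated in greenhouse; injury/control rated visually two weeks after treatment.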

[13] = system: Amaranth pigweed (PW); experiment: Post-emergence herbicide test; format: in vivo, Amaranthus retroflexus; conditions: 336 h, 4 lb/acre, two weeks after treatment
Procedure: Amaranth pigweed (PW)--Amaranthus retroflexus
All crop and weed species were planted individually in 3' plastic pots containing potting soil. Four seeds each of corn, cotton, and snapbeans were seeded to a depth equal to the diameter of the seed. All other species were surface seeded and sprinkled with screened soil in an amount sufficient to cover the seed. Immediately after planting, all pots were watered by sub-irrigation in greenhouse trays. Pots for the pre-emergence phase were seeded one day before treatment.
Planting dates for the post-emergence phase were varied so that all seedlings would reach the desired stage of development simultaneously. The proper stage of seedling development for treatment in the post-emergence phase is as follows:
Pigweed and turnips: 1 or 2 true leaves above visible cotyledons.
Compounds were tested at rates of application equivalent to 8 lbs. of actual compound per acre in a spray volume of 38 gallons per acre. Spray hood constants required to deliver the above volume are as follows:
Formulations for spray applications were prepared in 50 ml volumes with the following three components:
Formulations for the 4 lbs/acre rate were prepared by adjusting the amount of active ingredient accordingly.
Spray applications were made in a hood containing a removable belt and fixed spray nozzle. For passage through the spray hood, one pot of each specie (pre-emergence phase) was placed on the rear half of the flat. Treatments were removed to the greenhouse after spraying. Watering during the observation period was done only by sub-irrigation.
Two weeks after treatment, pre- and post-emergence injury or control was visually rated, and the results were as shown in the following tables. Pre-emergence data are provided in TABLE III and post-emergence data are provided in TABLE IV, for compounds having the formula illustrated in TABLE I. Correspondingly, pre-emergence and post-emergence data, respectively, are set forth in TABLES V AND VI, for compounds having the formula illustrated in TABLE II.

[14] = system: Johnson grass (JG); experiment: Post-emergence herbicide test; format: in vivo, Sorgum helepense; conditions: Sorghum halepense, 336 h, 4 lb/acre, two weeks after treatment
Summary of the method: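 Greenhouse pot-grown seedlings sprayed post-emergence at 8 lbs compound per acre (some at 4 lbs/acre) in 38 gallons per acre spray volume. Sub-irrigated thereafter. Injury/control rated visually two weeks after treatment.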

[15] = system: Corn (CN); experiment: Post-emergence herbicide test; format: in vivo; conditions: Zea mays, 336 h, 4 lb/acre, two weeks after treatment
Summary of the method: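 Greenhouse seedlings grown in potting soil and sprayed post-emergence at 8 lbs compound/acre (formulations also made for 4 lbs/acre) in 38 gallons/acre spray volume. Watering by sub-irrigation only. Injury or control rated visually two weeks after treatment.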

`CCS(=O)(=O)c1nnc(N(C)C(=O)NC)s1` [Example 91] showed a pest or weed control at 560.425 g/ha ([1]; 0.5 lb/acre) of 40%, a pest or weed control at 1120.85 g/ha ([1]; 1 lb/acre) of 60% and a pest or weed control ([1]; 2 lb/acre) of 70%. For the same compound, the pest or weed control at 4483.4 g/ha [1] was 100%, the pest or weed control at 560.425 g/ha ([2]; 0.5 lb/acre) was 40% and the pest or weed control at 1120.85 g/ha ([2]; 1 lb/acre) was 90%. For the same compound, the pest or weed control at 2241.7 g/ha ([2]; 2 lb/acre) was 100%, the pest or weed control at 4483.4 g/ha [2] was 100% and the pest or weed control at 560.425 g/ha ([3]; 0.5 lb/acre) was 100%. The pest or weed control at 1120.85 g/ha ([3]; 1 lb/acre) was 100%, the pest or weed control at 2241.7 g/ha ([3]; 2 lb/acre) was 100% and the pest or weed control at 4483.4 g/ha [3] was 100%. For the same compound, the pest or weed control at 560.425 g/ha ([4]; 0.5 lb/acre) was 10%, the pest or weed control at 1120.85 g/ha ([4]; 1 lb/acre) was 70% and the pest or weed control at 2241.7 g/ha ([4]; 2 lb/acre) was 70%. The pest or weed control at 4483.4 g/ha [4] was 100%, the pest or weed control at 560.425 g/ha ([5]; 0.5 lb/acre) was 80% and the pest or weed control at 1120.85 g/ha ([5]; 1 lb/acre) was 90%. It also gave a pest or weed control at 2241.7 g/ha ([5]; 2 lb/acre) of 90%, a pest or weed control at 4483.4 g/ha [5] of 100% and a pest or weed control at 560.425 g/ha ([6]; 0.5 lb/acre) of 100%. The pest or weed control at 1120.85 g/ha ([6]; 1 lb/acre) was 100%, the pest or weed control at 2241.7 g/ha ([6]; 2 lb/acre) was 100% and the pest or weed control at 4483.4 g/ha [6] was 100%. For the same compound, the pest or weed control at 560.425 g/ha ([7]; 0.5 lb/acre) was 30%, the pest or weed control at 1120.85 g/ha ([7]; 1 lb/acre) was 50% and the pest or weed control at 2241.7 g/ha ([7]; 2 lb/acre) was 50%. The pest or weed control at 4483.4 g/ha [7] was 90%, the pest or weed control at 560.425 g/ha ([8]; 0.5 lb/acre) was 10% and the pest or weed control at 1120.85 g/ha ([8]; 1 lb/acre) was 50%. The pest or weed control at 2241.7 g/ha ([8]; 2 lb/acre) was 50%, the pest or weed control at 4483.4 g/ha [8] was 60% and the pest or weed control at 560.425 g/ha ([9]; 0.5 lb/acre) was 100%. For the same compound, the pest or weed control at 1120.85 g/ha ([9]; 1 lb/acre) was 100%, the pest or weed control at 2241.7 g/ha ([9]; 2 lb/acre) was 100% and the pest or weed control at 4483.4 g/ha [9] was 100%. It also gave a pest or weed control at 560.425 g/ha ([10]; 0.5 lb/acre) of 30%, a pest or weed control at 1120.85 g/ha ([10]; 1 lb/acre) of 60% and a pest or weed control at 2241.7 g/ha ([10]; 2 lb/acre) of 90%. It also gave a pest or weed control at 4483.4 g/ha ([10]; 4 lb/acre) of 100%, a pest or weed control at 560.425 g/ha ([11]; 0.5 lb/acre) of 60% and a pest or weed control at 1120.85 g/ha ([11]; 1 lb/acre) of 60%. It also gave a pest or weed control at 2241.7 g/ha ([11]; 2 lb/acre) of 90%, a pest or weed control at 4483.4 g/ha [11] of 100% and a pest or weed control at 560.425 g/ha ([12]; 0.5 lb/acre) of 50%. The pest or weed control at 1120.85 g/ha ([12]; 1 lb/acre) was 50%, the pest or weed control at 2241.7 g/ha ([12]; 2 lb/acre) was 60% and the pest or weed control at 4483.4 g/ha [12] was 100%.

`CCOC(=O)C(Sc1nnc(NC(=O)NC)s1)C(=O)OCC` [Example 79] was tested, and the pest or weed control at 4483.4 g/ha [1] was 30%, the pest or weed control at 4483.4 g/ha [2] was 0% and the pest or weed control at 4483.4 g/ha [13] was 40%. The pest or weed control at 4483.4 g/ha [3] was 60%, the pest or weed control at 4483.4 g/ha [4] was 90% and the pest or weed control at 4483.4 g/ha [5] was 20%. For the same compound, the pest or weed control at 4483.4 g/ha [14] was 30%, the pest or weed control at 4483.4 g/ha [6] was 40% and the pest or weed control at 4483.4 g/ha [7] was 50%. It also gave a pest or weed control at 4483.4 g/ha [8] of 20%, a pest or weed control at 4483.4 g/ha [9] of 90% and a pest or weed control at 4483.4 g/ha [15] of 40%. For the same compound, the pest or weed control at 4483.4 g/ha [11] was 20% and the pest or weed control at 4483.4 g/ha [12] was 20%.

Reference: patent US4175081A, “5-Substituted thiadiazole ureas” (priority 1977, dated 1979)
